Source: US8758816B2, “Compositions comprising azelastine and methods of use thereof” (priority 2004, dated 2014)
Counter-ions that a name gives are not always drawn.

Tested on: patients with seasonal allergic rhinitis (SAR)
Experiment: MP 428 two-week randomized double-blind study: Total Nasal Symptom Score (TNSS), change from baseline
Format: in vivo, human
Design: key to Change from Baseline in AM TNSS, Mean / Change from Baseline in AM TNSS, LS Mean / Change from Baseline in AM TNSS, Median: TNSS sum of 4 symptoms each 0-3 (0=none, 3=severe); change from baseline
Experimental: A two-week, randomized, double-blind study, which evaluated the effects of the co-administration of ASTELIN® (azelastine hydrochloride (HCl)) and FLONASE® (fluticasone propionate) compared to either product alone in patients with seasonal allergic rhinitis (SAR) was conducted during the 2006 Texas mountain cedar season. After a 5-day placebo lead-in period, 151 patients with moderate-to-severe allergic rhinitis symptoms were randomized to either: (1) (49 total patients) ASTELIN® (azelastine hydrochloride (HCl)) plus placebo saline nasal spray 2 sprays per nostril, 15 minutes apart, twice daily (AM & PM); (2) (50 total patients) FLONASE® (fluticasone propionate) plus placebo saline nasal spray, 2 sprays per nostril, 15 minutes apart, once daily (AM) and two sessions of placebo saline nasal spray, 2 sprays per nostril, 15 minutes apart (PM); or (3) (52 total patients) the co-administration of ASTELIN® (azelastine hydrochloride (HCl)) 2 sprays per nostril plus FLONASE® (fluticasone propionate) 2 sprays per nostril (AM), 15 minutes apart, and ASTELIN® (azelastine hydrochloride (HCl)) 2 sprays per nostril plus placebo saline nasal spray, 15 minutes apart, (PM) for a 2-week double-blind treatment period.
The primary efficacy variable was the change from baseline in the Total Nasal Symptom Score (TNSS), which comprised sneezing, itchy nose, runny nose, and nasal congestion (individual symptoms scores were assigned a value between 0 and 3, where 0=no symptoms and 3=severe symptoms). This study was not statistically designed to assess the differences between ASTELIN® and FLONASE®.

[1] = Day 5, Intent-to-Treat Population
[2] = Day 6, Intent-to-Treat Population
[3] = Day 7, Intent-to-Treat Population
[4] = Day 8, Intent-to-Treat Population
[5] = Day 9, Intent-to-Treat Population

Compound: CN1CCCC(n2nc(Cc3ccc(Cl)cc3)c3ccccc3c2=O)CC1 (racemic) [Azelastine, (±)-1-(2H)-phthalazinone, 4-[(4-chlorophenyl)methyl]-2-(hexahydro-1-methyl-1H-azepin-4-yl)-, mono-hydrochloride]
- Percent Change from Baseline in AM and PM Combined TNSS, Mean [1]: −23.15%
- Percent Change from Baseline in AM and PM Combined TNSS, Median [1]: −18.64%
- Percent Change from Baseline in PM TNSS, LS Mean [1]: −22.87%
- Percent Change from Baseline in PM TNSS, Mean [1]: −22.50%
- Percent Change from Baseline in PM TNSS, Median [1]: −13.04%
- Change from Baseline in AM and PM Combined TNSS, LS Mean (Day 5, Intent-to-Treat Population, ANCOVA model): −4.46
- Change from Baseline in AM and PM Combined TNSS, LS Mean (Day 5, Per-Protocol Population): −4.43
- Change from Baseline in AM and PM Combined TNSS, Mean (Day 5, Per-Protocol Population): −4.48
- Change from Baseline in AM and PM Combined TNSS, Median (Day 5, Per-Protocol Population): −3.67
- Percent Change from Baseline in AM and PM Combined TNSS, LS Mean (Day 5, Per-Protocol Population): −23.17%
- Percent Change from Baseline in AM and PM Combined TNSS, Mean (Day 5, Per-Protocol Population): −23.15%
- Percent Change from Baseline in AM and PM Combined TNSS, Median (Day 5, Per-Protocol Population): −18.64%
- Change from Baseline in AM TNSS, LS Mean [2]: −2.01
- Change from Baseline in AM TNSS, Mean [2]: −2.01
- Change from Baseline in AM TNSS, Median [2]: −2.00
- Change from Baseline in AM and PM Combined TNSS, Mean [2]: −4.44
- Change from Baseline in AM and PM Combined TNSS, Median [2]: −3.70
- Change from Baseline in PM TNSS, LS Mean [2]: −2.38
- Change from Baseline in PM TNSS, Mean [2]: −2.43
- Change from Baseline in PM TNSS, Median [2]: −2.00
- Percent Change from Baseline in AM TNSS, LS Mean [2]: −21.14%
- Percent Change from Baseline in AM TNSS, Mean [2]: −21.35%
- Percent Change from Baseline in AM TNSS, Median [2]: −16.67%
- Percent Change from Baseline in AM and PM Combined TNSS, LS Mean [2]: −23.15%
- Percent Change from Baseline in AM and PM Combined TNSS, Mean [2]: −23.13%
- Percent Change from Baseline in AM and PM Combined TNSS, Median [2]: −18.78%
- Percent Change from Baseline in PM TNSS, LS Mean [2]: −25.18%
- Percent Change from Baseline in PM TNSS, Mean [2]: −24.82%
- Percent Change from Baseline in PM TNSS, Median [2]: −20.45%
- Change from Baseline in AM and PM Combined TNSS, LS Mean (Day 6, Intent-to-Treat Population, ANCOVA model): −4.40
- Change from Baseline in AM and PM Combined TNSS, LS Mean (Day 6, Per-Protocol Population): −4.38
- Change from Baseline in AM and PM Combined TNSS, Mean (Day 6, Per-Protocol Population): −4.44
- Change from Baseline in AM and PM Combined TNSS, Median (Day 6, Per-Protocol Population): −3.70
- Percent Change from Baseline in AM and PM Combined TNSS, LS Mean (Day 6, Per-Protocol Population): −23.16%
- Percent Change from Baseline in AM and PM Combined TNSS, Mean (Day 6, Per-Protocol Population): −23.13%
- Percent Change from Baseline in AM and PM Combined TNSS, Median (Day 6, Per-Protocol Population): −18.78%
- Change from Baseline in AM TNSS, LS Mean [3]: −2.52
- Change from Baseline in AM TNSS, Mean [3]: −2.52
- Change from Baseline in AM TNSS, Median [3]: −2.20
- Change from Baseline in AM and PM Combined TNSS, Mean [3]: −5.09
- Change from Baseline in AM and PM Combined TNSS, Median [3]: −4.67
- Change from Baseline in PM TNSS, LS Mean [3]: −2.54
- Change from Baseline in PM TNSS, Mean [3]: −2.57
- Change from Baseline in PM TNSS, Median [3]: −2.25
- Percent Change from Baseline in AM TNSS, LS Mean [3]: −26.26%
- Percent Change from Baseline in AM TNSS, Mean [3]: −26.58%
- Percent Change from Baseline in AM TNSS, Median [3]: −25.00%
- Percent Change from Baseline in AM and PM Combined TNSS, LS Mean [3]: −26.40%
- Percent Change from Baseline in AM and PM Combined TNSS, Mean [3]: −26.52%
- Percent Change from Baseline in AM and PM Combined TNSS, Median [3]: −23.31%
- Percent Change from Baseline in PM TNSS, LS Mean [3]: −26.39%
- Percent Change from Baseline in PM TNSS, Mean [3]: −26.20%
- Percent Change from Baseline in PM TNSS, Median [3]: −23.81%
- Change from Baseline in AM and PM Combined TNSS, LS Mean (Day 7, Intent-to-Treat Population, ANCOVA model): −5.05
- Change from Baseline in AM and PM Combined TNSS, LS Mean (Day 7, Per-Protocol Population): −5.01
- Change from Baseline in AM and PM Combined TNSS, Mean (Day 7, Per-Protocol Population): −5.09
- Change from Baseline in AM and PM Combined TNSS, Median (Day 7, Per-Protocol Population): −4.67
- Percent Change from Baseline in AM and PM Combined TNSS, LS Mean (Day 7, Per-Protocol Population): −26.32%
- Percent Change from Baseline in AM and PM Combined TNSS, Mean (Day 7, Per-Protocol Population): −26.52%
- Percent Change from Baseline in AM and PM Combined TNSS, Median (Day 7, Per-Protocol Population): −23.31%
- Change from Baseline in AM TNSS, LS Mean [4]: −2.65
- Change from Baseline in AM TNSS, Mean [4]: −2.62
- Change from Baseline in AM TNSS, Median [4]: −2.50
- Change from Baseline in AM and PM Combined TNSS, Mean [4]: −5.38
- Change from Baseline in AM and PM Combined TNSS, Median [4]: −5.00
- Change from Baseline in PM TNSS, LS Mean [4]: −2.69
- Change from Baseline in PM TNSS, Mean [4]: −2.76
- Change from Baseline in PM TNSS, Median [4]: −2.75
- Percent Change from Baseline in AM TNSS, LS Mean [4]: −27.73%
- Percent Change from Baseline in AM TNSS, Mean [4]: −27.83%
- Percent Change from Baseline in AM TNSS, Median [4]: −25.00%
- Percent Change from Baseline in AM and PM Combined TNSS, LS Mean [4]: −28.22%
- Percent Change from Baseline in AM and PM Combined TNSS, Mean [4]: −28.13%
- Percent Change from Baseline in AM and PM Combined TNSS, Median [4]: −23.73%
- Percent Change from Baseline in PM TNSS, LS Mean [4]: −27.94%
- Percent Change from Baseline in PM TNSS, Mean [4]: −28.17%
- Percent Change from Baseline in PM TNSS, Median [4]: −27.27%
- Change from Baseline in AM and PM Combined TNSS, LS Mean (Day 8, Intent-to-Treat Population, ANCOVA model): −5.37
- Change from Baseline in AM and PM Combined TNSS, LS Mean (Day 8, Per-Protocol Population): −5.33
- Change from Baseline in AM and PM Combined TNSS, Mean (Day 8, Per-Protocol Population): −5.38
- Change from Baseline in AM and PM Combined TNSS, Median (Day 8, Per-Protocol Population): −5.00
- Percent Change from Baseline in AM and PM Combined TNSS, LS Mean (Day 8, Per-Protocol Population): −28.14%
- Percent Change from Baseline in AM and PM Combined TNSS, Mean (Day 8, Per-Protocol Population): −28.13%
- Percent Change from Baseline in AM and PM Combined TNSS, Median (Day 8, Per-Protocol Population): −23.73%
- Change from Baseline in AM TNSS, LS Mean [5]: −2.57
- Change from Baseline in AM TNSS, Mean [5]: −2.52
